Target: CDK2/Cyclin E1 (Homo sapiens (Human), UniProt P24941)
Assay: CDK2/Cyclin E1 HTRF enzyme activity assay (Example A)
Type: biochemical
Conditions: 1 mM ATP
Description: Assays were conducted in white 384-well polystyrene plates in a final reaction volume of 8 μL. […] HTRF signals were read after 1 hour at room temperature on a PHERAstar FS plate reader (BMG Labtech). Data was analyzed with IDBS XLFit and GraphPad Prism 5.0 software using a three or four parameter dose response curve to determine IC50 for each compound.

Row | Structure (SMILES) | IC50 [nM]
1 | Cc1nc(-c2nc(NC3CCN(S(C)(=O)=O)CC3)ncc2C(F)(F)F)cn1C [Example 19, 4-(1,2-Dimethyl-1H-imidazol-4-yl)-N-(1-(methylsulfonyl)piperidin-4-yl)-5-(trifluoromethyl)pyrimidin-2-amine] | 50 to 200
2 | Cc1nc(-c2nc(NC3CCN(S(C)(=O)=O)CC3)ncc2C(F)(F)F)cn1-c1ccc(N2CCC(N3CCN(C)CC3)CC2)cc1F [Example 415, 4-(1-(2-Fluoro-4-(4-(4-methylpiperazin-1-yl)piperidin-1-yl)phenyl)-2-methyl-1H-imidazol-4-yl)-N-(1-(methylsulfonyl)piperidin-4-yl)-5-(trifluoromethyl)pyrimidin-2-amine] | ≤ 50
3 | CCOc1ccc(-n2cnc(-c3nc(NC4CCN(S(C)(=O)=O)CC4)ncc3C(F)(F)F)c2)c(C#N)c1 [Example 436, 5-Ethoxy-2-(4-(2-((1-(methylsulfonyl)piperidin-4-yl)amino)-5-(trifluoromethyl)pyrimidin-4-yl)-1H-imidazol-1-yl)benzonitrile] | ≤ 50
4 | Cc1nc(-c2nc(NC3CCN(S(C)(=O)=O)CC3)ncc2C(F)(F)F)cn1-c1ccc(C2CN(C[C@H](C)O)C2)cc1F [Example 419, (S)-1-(3-(3-Fluoro-4-(2-methyl-4-(2-((1-(methylsulfonyl)piperidin-4-yl)amino)-5-(trifluoromethyl)pyrimidin-4-yl)-1H-imidazol-1-yl)phenyl)azetidin-1-yl)propan-2-ol] | ≤ 50
5 | Cc1ccc(-n2cnc(-c3nc(N[C@H]4CCN(S(C)(=O)=O)C[C@H]4F)ncc3C(F)(F)F)c2)c(C(F)(F)F)n1 [Example 46, N-((3R,4S)-3-Fluoro-1-(methylsulfonyl)piperidin-4-yl)-4-(1-(6-methyl-2-(trifluoromethyl)pyridin-3-yl)-1H-imidazol-4-yl)-5-(trifluoromethyl)pyrimidin-2-amine] | ≤ 50
6 | CS(=O)(=O)N1CCC(Nc2ncc(C(F)(F)F)c(-c3cn(-c4cccnc4C#N)cn3)n2)CC1 [Example 34, 3-(4-(2-((1-(Methylsulfonyl)piperidin-4-yl)amino)-5-(trifluoromethyl)pyrimidin-4-yl)-1H-imidazol-1-yl)picolinonitrile] | ≤ 50
7 | Cc1nc(-c2nc(N[C@H]3CCN(S(C)(=O)=O)C[C@H]3F)ncc2C(F)(F)F)cn1-c1cccc(C#N)c1Cl [Example 384, 2-Chloro-3-(4-(2-(((3R,4S)-3-fluoro-1-(methylsulfonyl)piperidin-4-yl)amino)-5-(trifluoromethyl)pyrimi-din-4-yl)-2-methyl-1H-imidazol-1-yl)benzonitrile] | ≤ 50
8 | CS(=O)(=O)N1CC[C@H](Nc2ncc(C(F)(F)F)c(-c3cn(-c4cccc(C#N)c4Cl)cn3)n2)[C@H](F)C1 [Example 45, 2-Chloro-3-(4-(2-(((3R,4S)-3-fluoro-1-(methylsulfonyl)piperidin-4-yl)amino)-5-(trifluoromethyl)pyrimidin-4-yl)-1H-imidazol-1-yl)benzonitrile] | ≤ 50
9 | Cc1nc(-c2nc(NC3CCN(S(C)(=O)=O)CC3)ncc2C(F)(F)F)cn1-c1ccc(-c2ccnn2C)cc1F [Example 129, 4-(1-(2-Fluoro-4-(1-methyl-1H-pyrazol-5-yl)phenyl)-2-methyl-1H-imidazol-4-yl)-N-(1-(methylsulfonyl)-piperidin-4-yl)-5-(trifluoromethyl)-pyrimidin-2-amine] | ≤ 50
10 | CCN1CCN(Cc2ccc(-n3cnc(-c4nc(N[C@@H]5CCN(S(C)(=O)=O)C[C@H]5F)ncc4C(F)(F)F)c3)c(Cl)c2)CC1 [Example 398, 4-(1-(2-Chloro-4-((4-ethylpiperazin-1-yl)methyl)phenyl)-1H-imidazol-4-yl)-N-((3R,4R)-3-fluoro-1-(methylsulfonyl)piperidin-4-yl)-5-(trifluoromethyl)pyrimidin-2-amine] | ≤ 50
11 | CS(=O)(=O)N1CCC(Nc2ncc(C(F)(F)F)c(-c3cn(-c4ccc(C#N)cc4C#N)cn3)n2)CC1 [Example 59, 4-(4-(2-((1-(Methylsulfonyl)piperidin-4-yl)amino)-5-(trifluoromethyl)pyrimidin-4-yl)-1H-imidazol-1-yl)isophthalonitrile] | ≤ 50
12 | Cn1cnc(-c2nc(NC3CCN(S(C)(=O)=O)CC3)ncc2C(F)(F)F)c1Cl [Example 14, 4-(5-Chloro-1-methyl-1H-imidazol-4-yl)-N-(1-(methylsulfonyl)piperidin-4-yl)-5-(trifluoromethyl)pyrimidin-2-amine] | ≤ 50
13 | CNCCN(C)c1ccc(-n2cnc(-c3nc(NC4CCN(S(C)(=O)=O)CC4)ncc3C(F)(F)F)c2)c(C#N)c1 [Example 431, 5-(Methyl(2-(methylamino)ethyl)amino)-2-(4-(2-((1-(methylsulfonyl)piperidin-4-yl)amino)-5-(trifluoromethyl)pyrimidin-4-yl)-1H-imidazol-1-yl)benzonitrile] | ≤ 50

Second part, the compound after the results:

Row | IC50 [nM] | Structure (SMILES)
14 | ≤ 50 | CS(=O)(=O)N1CCC(Nc2ncc(C(F)(F)F)c(-c3cn(-c4ccc(C#N)cc4CO)cn3)n2)CC1 [Example 235, 3-(Hydroxymethyl)-4-(4-(2-((1-(methylsulfonyl)piperidin-4-yl)amino)-5-(trifluoromethyl)pyrimidin-4-yl)-1H-imidazol-1-yl)benzonitrile]
15 | ≤ 50 | CS(=O)(=O)N1CCC(Nc2ncc(C(F)(F)F)c(-c3cn(-c4ccc(CNCC(F)(F)F)cc4Cl)cn3)n2)CC1 [Example 188, 4-(1-(2-Chloro-4-(((2,2,2-trifluoroethyl)-amino)methyl)phenyl)-1H-imidazol-4-yl)-N-(1-(methylsulfonyl)-piperidin-4-yl)-5-(trifluoromethyl)-pyrimidin-2-amine]
16 | ≤ 50 | CS(=O)(=O)N1CCC(Nc2ncc(C(F)(F)F)c(-c3cn(-c4cccc(CN5CC(C#N)C5)c4Cl)cn3)n2)CC1 [Example 463, 1-(2-Chloro-3-(4-(2-((1-(methylsulfonyl)piperidin-4-yl)amino)-5-(trifluoromethyl)pyrimidin-4-yl)-1H-imidazol-1-yl)benzyl)azetidine-3-carbonitrile]
17 | ≤ 50 | CS(=O)(=O)N1CCC(Nc2ncc(C(F)(F)F)c(-c3cn(-c4cccc(CCNC5CC5)c4Cl)cn3)n2)CC1 [Example 371, 4-(1-(2-Chloro-3-(2-(cyclopropylamino)eth-yl)phenyl)-1H-imidazol-4-yl)-N-(1-(methylsulfonyl)piperidin-4-yl)-5-(trifluoromethyl)pyrimi-din-2-amine]
18 | ≤ 50 | CS(=O)(=O)N1CCC(Nc2ncc(C(F)(F)F)c(-c3cn(-c4cccc(CN5CC(C#N)C5)c4C(F)(F)F)cn3)n2)CC1 [Example 470, 1-(3-(4-(2-((1-(Methylsulfonyl)piperidin-4-yl)amino)-5-(trifluoromethyl)pyrimidin-4-yl)-1H-imidazol-1-yl)-2-(trifluoromethyl)benzyl)azetidine-3-carbonitrile]
19 | ≤ 50 | CC1(F)CN(Cc2ccc(-n3cnc(-c4nc(NC5CCN(S(C)(=O)=O)CC5)ncc4C(F)(F)F)c3)c(Cl)c2)C1 [Example 196, 4-(1-(2-Chloro-4-((3-fluoro-3-methyl-azetidin-1-yl)methyl)-phenyl)-1H-imidazol-4-yl)-N-(1-(methyl-sulfonyl)piperidin-4-yl)-5-(trifluoromethyl)-pyrimidin-2-amine]
20 | ≤ 50 | Cc1nc(C(N)=O)ccc1-n1cnc(-c2nc(NC3CCN(S(C)(=O)=O)CC3)ncc2C(F)(F)F)c1 [Example 130, 6-Methyl-5-(4-(2-((1-(methylsulfonyl)piperidin-4-yl)amino)-5-(trifluoromethyl)pyrimidin-4-yl)-1H-imidazol-1-yl)picolinamide]
21 | ≤ 50 | CS(=O)(=O)N1CCC(Nc2ncc(C(F)(F)F)c(-c3cn(-c4ccc(Cn5cnnc5)cc4Cl)cn3)n2)CC1 [Example 239, 4-(1-(4-((4H-1,2,4-Triazol-4-yl)methyl)-2-chlorophenyl)-1H-imidazol-4-yl)-N-(1-(methylsulfonyl)piperidin-4-yl)-5-(trifluoromethyl)pyrimidin-2-amine]
22 | ≤ 50 | CS(=O)(=O)N1CCC(Nc2ncc(C(F)(F)F)c(-c3cn(-c4ccc(CN5CCC5)c(F)c4Cl)cn3)n2)CC1 [Example 269, 4-(1-(4-(Azetidin-1-ylmethyl)-2-chloro-3-fluorophenyl)-1H-imidazol-4-yl)-N-(1-(methylsulfonyl)piperidin-4-yl)-5-(trifluoromethyl)pyrimidin-2-amine]
23 | ≤ 50 | Cc1ccc(-n2cnc(-c3nc(NC4CCN(S(C)(=O)=O)CC4)ncc3C(F)(F)F)c2)c(C#N)c1Cl [Example 62, 2-Chloro-3-methyl-6-(4-(2-((1-(methylsulfonyl)piperidin-4-yl)amino)-5-(trifluoromethyl)pyrimidin-4-yl)-1H-imidazol-1-yl)benzonitrile]
24 | ≤ 50 | CS(=O)(=O)N1CCC(Nc2ncc(C(F)(F)F)c(-c3cn(-c4ccc(N5CCNC(=O)C5)cc4Cl)cn3)n2)CC1 [Example 150, 4-(3-Chloro-4-(4-(2-((1-(methyl-sulfonyl)piperidin-4-yl)amino)-5-(trifluoromethyl)-pyrimidin-4-yl)-1H-imidazol-1-yl)-phenyl)piperazin-2-one]
25 | ≤ 50 | CS(=O)(=O)N1CCC(Nc2ncc(C(F)(F)F)c(-c3cn(-c4ccc(CN5CCC5)nc4C(F)(F)F)cn3)n2)CC1 [Example 247, 4-(1-(6-(Azetidin-1-ylmethyl)-2-(trifluoromethyl)pyridin-3-yl)-1H-imidazol-4-yl)-N-(1-(methylsulfonyl)piperidin-4-yl)-5-(trifluoromethyl)pyrimidin-2-amine]
26 | ≤ 50 | CS(=O)(=O)N1CCC(Nc2ncc(C(F)(F)F)c(-c3cn(-c4ccc(CNCC5CC5)cc4Cl)cn3)n2)CC1 [Example 191, 4-(1-(2-Chloro-4-(((cyclopropylmethyl)-amino)methyl)phenyl)-1H-imidazol-4-yl)-N-(1-(methylsulfonyl)-piperidin-4-yl)-5-(trifluoromethyl)-pyrimidin-2-amine]
27 | ≤ 50 | CS(=O)(=O)N1CCC(Nc2ncc(C(F)(F)F)c(-c3cn(-c4ccc(CN5CC(F)(F)C5)cc4Cl)cn3)n2)CC1 [Example 193, 4-(1-(2-Chloro-4-((3,3-difluoroazetidin-1-yl)methyl)phenyl)-1H-imidazol-4-yl)-N-(1-(methylsulfonyl)-piperidin-4-yl)-5-(trifluoromethyl)-pyrimidin-2-amine]

— patent US11427567B2, “Imidazolyl pyrimidinylamine compounds as CDK2 inhibitors” (Incyte Corporation, priority 2019, dated 2022)
